Assay results: the CheMixHub ionic liquid set

Assay: xn = mol fraction of the nth substance listed

CCCCCCCC[N+](C)(C)C.[Br-] + O
298.15 K, 101 kPa
Conditions | viscosity [mPa·s]
x1 = 0.000891 | 0.9226
x1 = 0.001742 | 0.956
x1 = 0.002174 | 0.9692
x1 = 0.002616 | 0.9795
x1 = 0.003154 | 0.9978
x1 = 0.003538 | 1.012
x1 = 0.004276 | 1.036
x1 = 0.004645 | 1.048
x1 = 0.005039 | 1.058
x1 = 0.005479 | 1.076

CCCC[n+]1ccn(C)c1.N[C@@H](CC(=O)O)C(=O)[O-] + CO
101 kPa
Conditions | electrical conductivity [S/m]
298.15 K, x2 = 0.2999 | 0.101
298.15 K, x2 = 0.5015 | 0.161
298.15 K, x2 = 0.7957 | 0.64
298.15 K, x2 = 0.8988 | 1.13
303.15 K, x2 = 0.1999 | 0.108
303.15 K, x2 = 0.5949 | 0.241
303.15 K, x2 = 0.6969 | 0.377
308.15 K, x2 = 0.398 | 0.218
308.15 K, x2 = 0.6969 | 0.496
308.15 K, x2 = 0.9214 | 1.39
308.15 K, x2 = 0.975 | 1.36
318.15 K, x2 = 0.1999 | 0.212
318.15 K, x2 = 0.5015 | 0.378
318.15 K, x2 = 0.7957 | 0.98
318.15 K, x2 = 0.8988 | 1.42

OCC(O)CO + CCCCCCCCCCCC[P+](CC)(CC)CC.N#Cc1ccc[n-]1
100 kPa, x2 = 0
Conditions | viscosity [mPa·s]
293.15 K | 1360
298.15 K | 860
303.15 K | 542
313.15 K | 217

CC(=O)[O-].Cn1cc[n+](C)c1 + CCO
293.15 K, 101.3 kPa
Conditions | electrical conductivity [S/m]
x2 = 0 | 0.275
x2 = 0.0694 | 0.335
x2 = 0.1341 | 0.401
x2 = 0.2695 | 0.559
x2 = 0.4097 | 0.873
x2 = 0.5071 | 1.197
x2 = 0.6815 | 1.821
x2 = 0.7393 | 1.903
x2 = 0.7685 | 1.86
x2 = 0.7896 | 1.683
x2 = 0.8843 | 0.86
x2 = 0.9267 | 0.491
x2 = 0.9487 | 0.302
x2 = 0.9595 | 0.213
x2 = 0.9709 | 0.131

O=C([O-])C(F)(F)F.O=S(=O)(O)n1cc[n+](S(=O)(=O)O)c1 + CO
electrical conductivity [S/m], 101 kPa
Conditions | 288.15 K | 298.15 K | 308.15 K | 313.15 K | 333.15 K
x1 = 0.0052 | – | 1.85 | – | – | –
x1 = 0.02551 | 4.64 | – | 3.89 | 3.76 | 3.25

CC1(C)CC(O)CC(C)(C)N1[O] + CC[N+](CC)(CC)CC.[Cl-] + O
323.15 K, 100 kPa, frequency 0.001 MHz
Conditions | electrical conductivity [S/m]
x1 = 0.091, x2 = 0.182 | 1.2
x1 = 0.167, x2 = 0.167 | 0.61
x1 = 0.2, x2 = 0 | 0.019
x1 = 0.286, x2 = 0.143 | 0.16

CCCC[P+](CC)(CCCC)CCCC.[Br-] + OCCO
101 kPa, x1 = 0.333
Conditions | viscosity [mPa·s]
303.15 K | 43.82
313.15 K | 29.04
323.15 K | 20.08
333.15 K | 14.44
343.15 K | 10.69
353.15 K | 8.22

CC[n+]1ccn(C)c1.O=S(=O)([O-])C(F)(F)F + [I-].[Li+]
101 kPa, x1 = 1
Conditions | electrical conductivity [S/m]
288.15 K | 0.605
298.15 K | 0.859
333.15 K | 2.24

Cc1n(S(=O)(=O)O)cc[n+]1S(=O)(=O)O.O=C([O-])C(F)(F)F + CC#N
101 kPa
Conditions | electrical conductivity [S/m]
278.15 K, x1 = 0.02551 | 1.39
283.15 K, x1 = 0.02551 | 1.36
288.15 K, x1 = 0.02551 | 1.3
293.15 K, x1 = 0.02551 | 1.29
298.15 K, x1 = 0.0052 | 0.351
298.15 K, x1 = 0.0104 | 0.528
298.15 K, x1 = 0.0155 | 0.698
298.15 K, x1 = 0.0205 | 1.04
298.15 K, x1 = 0.0255 | 1.26
298.15 K, x1 = 0.02551 | 1.26
303.15 K, x1 = 0.02551 | 1.2
308.15 K, x1 = 0.02551 | 1.15
313.15 K, x1 = 0.02551 | 1.1
318.15 K, x1 = 0.02551 | 1.09
323.15 K, x1 = 0.02551 | 1.08
328.15 K, x1 = 0.02551 | 0.706
333.15 K, x1 = 0.02551 | 0.616

O=c1cc[nH]c(=O)[nH]1 + CC(=O)[O-].CC[n+]1ccn(C)c1
Conditions | viscosity [mPa·s]
298.15 K, 100 kPa, x1 = 0.233 | 773
